Experimental data as given in ChEMBL document CHEMBL4699601, “5-Phenyl-1,3,4-oxadiazol-2(3H)-ones Are Potent Inhibitors of Notum Carboxylesterase Activity Identified by the Optimization of a Crystallographic Fragment Screening Hit” (J Med Chem, 2020).
Values after ≈ are worked out from the molar mass of the structure shown.

Tests used:
in vitro [1] = details: dog, MDCK-MDR1
in vitro [2] = details: dog, MDCK-MDR1; remark: listed apart in the source
physchem [3] = details: buffer
[4] = Half life in C57BL6 mouse plasma at 10 mg/kg, po measured up to 24 hrs; type: ADME, organism-based
[5] = Tmax in C57BL6 mouse plasma at 10 mg/kg, po measured up to 24 hrs; type: ADME, organism-based
[6] = Cmax in C57BL6 mouse plasma at 10 mg/kg, po measured up to 24 hrs; type: ADME, organism-based; parameters: route oral, dose 10 mg/kg, time <=24
[7] = AUC (0 to t) in C57BL6 mouse plasma at 10 mg/kg, po measured up to 24 hrs; type: ADME, organism-based; parameters: route oral, dose 10 mg/kg, time <=24
[8] = AUC (0 to infinity) in C57BL6 mouse plasma at 10 mg/kg, po measured up to 24 hrs; type: ADME, organism-based; parameters: route oral, dose 10 mg/kg, time <=24
[9] = Unbound brain-to-plasma concentration ratio in C57BL6 mouse plasma at 10 mg/kg, po measured up to 24 hrs; type: ADME, organism-based; details: brain and plasma, read-out: K(p,uu,brain)
[10] = Half life in C57BL6 mouse brain at 10 mg/kg, po measured up to 24 hrs; type: ADME, organism-based
[11] = Tmax in C57BL6 mouse brain at 10 mg/kg, po measured up to 24 hrs; type: ADME, organism-based
[12] = Cmax in C57BL6 mouse brain at 10 mg/kg, po measured up to 24 hrs; type: ADME, organism-based; parameters: route oral, dose 10 mg/kg, time <=24
[13] = AUC (0 to t) in C57BL6 mouse brain at 10 mg/kg, po measured up to 24 hrs; type: ADME, organism-based; details: in vivo
[14] = AUC (0 to infinity) in C57BL6 mouse brain at 10 mg/kg, po measured up to 24 hrs; type: ADME, organism-based; parameters: route oral, dose 10 mg/kg, time <=24; details: in vivo
physchem [15] = details: buffer, pH 7.4

half-life [4] [h]	Tmax [5] [h]	Cmax [6] [ng/mL]	AUC(0-t) at 24 h [7] [ng·h/mL]	AUC(0-inf) [8] [ng·h/mL]	Kp uu at 24 h [9]	half-life [10] [h]	Tmax [11] [h]	Cmax [12] [ng/g]	AUCt [13] [ng·h/g]	AUC [14] [ng·h/g]	logD (physchem [15])	SMILES	Papp A→B (in vitro [1]) [×10⁻⁶ cm/s]	Papp B→A (in vitro [2]) [×10⁻⁶ cm/s]	solubility (physchem [3]) [µM]
–	–	–	–	–	–	–	–	–	–	–	–	Oc1nnc(-c2ccc(Cl)c(C(F)(F)F)c2)s1	45	70	22 (≈ 6.17 µg/mL)
3.7	0.5	16600	50400	63100	0.025	2.3	0.17	2990	8870	9910	2.6	Oc1nnc(-c2ccc(Cl)c(C(F)(F)F)c2)o1	34	55	710 (≈ 188 µg/mL)
